Laboratory results as given in publication PMC11491346, “Molecular insights and inhibitory dynamics of flavonoids in targeting Pim-1 kinase for cancer therapy” (Frontiers in Pharmacology, 2024).

Biological target: Pim-1 kinase (Homo sapiens, UniProt P11309)
Assay: luminescence-based kinase assay (ADP to ATP, Ultra-Glo Luciferase), Pim-1 assay
Format: biochemical
Conditions: Figures 10, 11 and 13
Description: Enzyme activity was quantified using a luminescence-based kinase assay, which tracks the conversion of ADP to ATP, subsequently producing light via Ultra-Glo™ Luciferase. This luminescence is indicative of ADP levels and thus, enzyme activity. This method is particularly effective for analyzing the influence of various chemicals on different kinases, serving both initial screenings and specificity profiling.
The inhibitory concentration (IC50) values, expressed in micromolar (μM), were obtained from the Pim-1 assay. These values were converted to their corresponding negative logarithmic scale (pIC50) to facilitate a linear comparison using the following formula: pIC50=−log10 IC50 in M Where IC50 values were first converted from μM to molar (M) units before logarithmic transformation. Pulling force values, measured in pN, were sourced from the SMD experiments.

Pim-1 kinase, sequence (P11309 whole entry): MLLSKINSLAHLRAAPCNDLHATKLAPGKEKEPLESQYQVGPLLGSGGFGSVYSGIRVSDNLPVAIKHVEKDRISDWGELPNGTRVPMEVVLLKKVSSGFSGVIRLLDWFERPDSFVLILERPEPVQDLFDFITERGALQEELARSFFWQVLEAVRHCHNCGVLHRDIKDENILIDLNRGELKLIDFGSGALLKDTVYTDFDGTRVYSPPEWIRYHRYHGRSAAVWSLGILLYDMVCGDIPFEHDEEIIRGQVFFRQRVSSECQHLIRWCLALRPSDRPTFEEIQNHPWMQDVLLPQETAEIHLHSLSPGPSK

| Compound | class as Pim-1 kinase inhibitor (in words) |
| --- | --- |
| O=c1cc(-c2ccccc2)oc2cccc(O)c12 [5-Hydroxyflavone] | could not inhibit Pim-1 kinase activity |
| O=c1cc(-c2ccccc2)oc2ccc(O)cc12 [6-Hydroxyflavone] | could not inhibit Pim-1 kinase activity |

Same assay, conditions: Figures 10, 11 and 13; listed as 7-ydroxyflavone

| Compound | class as Pim-1 kinase inhibitor (in words) |
| --- | --- |
| O=c1cc(-c2ccccc2)oc2cc(O)ccc12 [7-Hydroxyflavone] | could not inhibit Pim-1 kinase activity |

Same assay, conditions: in vitro enzyme inhibition; read-out: Pim-1 kinase inhibitory activity IC50

| Compound | IC50 [µM] |
| --- | --- |
| O=c1c(O)c(-c2ccccc2)oc2ccccc12 [Compound 4, 3-Hydroxyflavone] | 35.1 |
| O=c1cc(-c2ccccc2)oc2cc(O)cc(O)c12 [Compound 6] | 5.33 |
| O=c1cc(-c2ccccc2)oc2cc(O)c(O)c(O)c12 [Compound 7] | 5.65 |
| O=c1c(O)c(-c2ccccc2)oc2cc(O)cc(O)c12 [Compound 8, Galangin] | 1.81 |
| O=c1c(O)c(-c2ccc(O)cc2)oc2cc(O)cc(O)c12 [Compound 9, Kaempferol] | 1.78 |
| O=c1cc(-c2ccc(O)cc2)oc2cc(O)cc(O)c12 [Compound 10] | 5.28 |
| O=c1cc(-c2ccc(O)c(O)c2)oc2cc(O)cc(O)c12 [Compound 11] | 4.63 |
